According to PMC9817077, “Simple, Reliable Protocol for High-Yield Solubilization of Seedless Amyloid-β Monomer” (ACS Chemical Neuroscience, 2022):

Experiments:
Format in all cases: physicochemical
[1] = Re-freezing of thawed aliquots (AF4-MALS and ThT); conditions: 50 mM NaOH, 5 min sonication; re-frozen in liquid N2, on pre-cooled metal or in a rack at −80 °C
Protocol: 174 S6 Re-freezing of Aβ solubilized in 50 mM NaOH
177 used on multiple separate occasions. Aliquots that had been prepared by sonication for 5 min 178 in 50 mM NaOH were thawed and then re-frozen according to one of three methods: rapid 179 freezing by immersion in liquid N2 (freezing time < 1 s); freezing by placing the Eppendorf 180 tube in contact with pre-cooled metal at -80 °C (< 1 min); and simply placing the sample 181 in a rack in the -80 °C freezer (< 5 min). While the former was obviously preferable, the 182 other two methods were tested due to their convenience, and to ascertain whether improper […]
185 indistinguishable the results obtained with ﬁrst-use aliquots (Figures 3-4 in the main text), […]
Therefore, Aβ(1-42) aliquots
187 […] 188 convenient when performing a range of experiments requiring diﬀerent quantities of peptide.
190 temperature is -80 °C, use of liquid N2 is still recommended whenever possible.
The corresponding LS 90o signal. (c) The normalized ThT self-assembly kinetics. All panels use the same color scheme, which encodes the re-freezing method: red, placement in a rack in the -80 °C freezer; green, freezing by placement in contact with pre-cooled metal at -80 °C; blue, rapid freezing by immersion in liquid N2.
(1 picture or pasted object on this page, not shown here)

[2] = Global fitting of ThT self-assembly curves to nucleated polymerization models; conditions: global fit
Source text: To test whether an equivalent analysis favored
106 four models to ﬁt the experimental data. Each model was globally ﬁtted, with all kinetic 107 parameters shared across initial monomer concentrations.
Firstly, we tested the Oosawa model (19). In this model, ﬁbrils form by primary nucle-ation, which behaves as annthc -order multimerization process. Fibrils then grow by stepwise addition of monomers to the ﬁbril end, which behaves as a second-order association between a ﬁbril and a free monomer. This model admits the exact solution (13, 20) […]
m(0) = 1−sech2/nc 2 λt , (S2)
109 Here, kn is the rate parameter for primary nucleation and k+ is the rate parameter for 110 elongation. As shown in Figure S8(a), the Oosawa model results in a poor ﬁt. Speciﬁcally, 111 the lack of a secondary process means the model cannot produce exponential early-time 112 scaling, and lacks a pronounced lag phase. This […] our observation of exponential 113 early-time kinetics, and the ﬁndings of previous work (16).
Next, we tested models that included a secondary process. Three such processes were considered: fragmentation (13, 14, 21), single-step secondary nucleation (14), and saturable multi-stepsecondarynucleation(17,18). Inallthreecases, theapproximatesolutionhasthe same mathematical form, and the models diﬀer only in the deﬁnitions of certain parameters.
The general equation is (13, 14, 21)
M(t) B− +C+eκt κ˜k∞e−k∞t, (S4) m(0) = 1− B+ +C+eκt B− +C+
Here, λ has the same deﬁnition as Eq. (S3), andκ and k∞ have model-speciﬁc deﬁnitions.
Since fragmentation can be treated as a special case of secondary nucleation (14, 16), we begin with the deﬁnitions for single-step secondary nucleation, […]
114 where k2 is the (n2 + 1)th-order rate constant for formation of a secondary ﬁbril nucleus 115 of eﬀective sizen2, at a rate also proportional to the concentration of monomers already 116 incorporated into ﬁbrils (14).
The correct solution for fragmentation can be obtained by taking the limit n2→ 0 (in practice, setting n2 = 10−3) and substituting (13, 14, 21)
117 wherekf is the rate constant for fragmentation at each possible break point along the length 118 of the ﬁbril. When ﬁtting the fragmentation-dominated model, the value ofkf was con-119 strained such thatkfk+ =knk+× (10−5.5 M)nc/(10−8 M), a constraint that was also applied 120 in (16). This ensures that fragmentation becomes dominant when the ﬁbril mass concen-121 tration M(t)≈ 10 nM for a reaction with initial monomer concentration m(0) =√10 µM, 122 forcing the ﬁtting algorithm to maintain an appreciable level of fragmentation. Without 123 this constraint, kf is simply minimized in order to attain a high concentration-dependence, […]
124 resulting in a ﬁt very similar to that obtained for the Oosawa model (16). […]
used with the modiﬁed deﬁnitions
A(t) =− λ2nc− 2k2k+K2m(0)log [K2 +m(t)n2]n2
125 where K2 is the eﬀective Michaelis constant for secondary nucleation, and2F1 is a hyper-126 geometric function. Note that, unlike traditional Michaelis-Menten kinetics, the rate of 127 saturable secondary nucleation has an nth2 -order rather than a linear dependence on m(t) in 128 the low concentration limit (15, 17, 18).
129 As shown in Figure S8(b), fragmentation succeeds in producing exponential early-time 130 scaling and a pronounced lag phase, but also results in a weak concentration-dependence 131 and an overly sharp approach to the maximum ﬂuorescence intensity. The latter two issues 132 are caused by the insensitivity of fragmentation to depletion of the free monomer, and 133 also lead to a high ﬁtted reaction order of primary nucleation (nc = 5.23), an attempt to 134 compensate for the weak concentration scaling of the secondary process. Had the value 135 of kf been left unconstrained, the ﬁt would instead have done this by minimising the role 136 of the concentration-insensitive secondary pathway, producing a ﬁt similar to Figure S8(a).
138 better ﬁt, as it is able to simultaneously produce exponential early-time scaling, the correct […]

[3] = Storage stability at −80 °C (ThT half-time against storage time)
Source text: To more quantitatively assess this stability, the mean fibrillization half-time τhalf of each ThT experiment was plotted against the storage time of the corresponding aliquot.
Each point corresponds to the average fibrillization half-time of a single ThT experiment; the error bars, which in some cases are too small to show, represent a single standard deviation. The fitted curve is an exponential decay of the form τhalf = τhalf^′e^–kmodt, where τhalf is the self-assembly half-time, τhalf^′ is the half-time prior to the effects of storage, kmod is the proportional rate of change of τhalf during storage, and t is the storage time. See text for values of the fitted parameters and Table S2 for the correspondence between the color scheme and sample ID.

Substance: Aβ(1-42): Ultrapure recombinant Aβ(1-42) purchased from rPeptide, lyophilized from HFIP; disordered amyloid-forming peptide
- AF4-MALS elugrams and ThT kinetics of re-frozen peptide against first-use aliquots [1]: indistinguishable
- nc ([2]; fragmentation model, kf constrained): 5.23
- nc ([2]; primary nucleation only (Oosawa model), 1.5–6.0 μM, sample 50-5-N-13): 2.37
- K2 (effective Michaelis constant for secondary nucleation) ([2]; saturable secondary nucleation): 2.74 µM
- n2 ([2]; saturable secondary nucleation): 2.37
- nc ([2]; saturable secondary nucleation, nc = n2 constrained): 2.37
- n2 ([2]; single-step secondary nucleation): 1.68
- nc ([2]; single-step secondary nucleation, nc = n2 constrained): 1.68
- period of stability at −80 °C ([3]; 5 min sonication in 50 mM NaOH, frozen in liquid N2): over 39 days
- rate constant kmod of decay of the self-assembly half-time during storage ([3]; 5 min sonication in 50 mM NaOH, stored at −80 °C for 1 to 39 days, exponential fit, not significantly different from 0 (P = 0.3011)): 6.53 × 10^–4 day^–1
- time constant τmod ([3]; storage at −80 °C, from exponential fit): 1530 days
